The test system of this test is Helicobacter pylori. The experiment in a line: Dual therapy of AGN 201904 with amoxicillin to treat H. pylori infection. The settings on record: AGN 201904 with amoxicillin alone (dual therapy), compared to standard H. pylori infection therapies. Type of test: in vivo.

Consider `COc1ccc2c(c1)nc([S+]([O-])Cc1ncc(C)c(OC)c1C)n2S(=O)(=O)c1ccc(OCC(=O)O)cc1` (centres unmarked) [AGN 201904], for which the “H. pylori eradication rate” value is “higher eradication rate” and the H. pylori resistance entry is “no H. pylori resistance”.

The values are drawn from patent US20180021319A1, “COMPOSITIONS AND METHODS FOR TREATING GASTROINTESTINAL INFECTIONS” (The Regents of the University of California, priority 2015, published 2018).
